Data on eleven compounds can be found in patent US5232926A, “Morphinane-skeletoned hydrazone derivatives” (priority 1992, dated 1993).

A short description of one data set: Sensitivity to light. The class given is physicochemical. The following applies: effect of light.
The nature of data set [1]: Hot plate test (analgetic activity). The following applies: sc. The class given is in vivo. (In general: Thermal pain tests record how soon the animal reacts.)
Data set [2] in a line: Tail Flick test (analgetic activity). Format: in vivo. The following applies: read-out: Tail Flick ED50.

As to `COc1ccc2c3c1O[C@H]1C(=NNc4ccccc4)C=C[C@@]4(O)[C@@H](C2)N(C)CC[C@]314` [14-OH-codeinone phenylhydrazone], the sensitivity to light result in the data set “Sensitivity to light” is given as “sensitive to light, it turns to yellow due to the effect of light”.

Take `COc1ccc2c3c1O[C@H]1C(=NNc4ccccc4)CC[C@H]4[C@@H](C2)N(C)CC[C@]314` [Dihydrocodeinone phenylhydrazone]: the ED50 (as a rule, the midpoint of the dose-response relation) in data set [1] was determined as 2.4 mg/kg; in data set [2] (sc.) it was 2.3 mg/kg.

As for `COc1ccc2c3c1O[C@H]1C(=NNC(N)=O)CC[C@H]4[C@@H](C2)N(C)CC[C@]314` [Dihydrocodeinone semicarbazone, Dihydrocodeinonesemicarbazone], the results for the 50% effective dose (ED50) in data set [1] and in data set [2] (sc.) were 0.38 mg/kg and 0.35 mg/kg, respectively.

Consider `COc1ccc2c3c1O[C@H]1C(=NNC(N)=S)CC[C@H]4[C@@H](C2)N(C)CC[C@]314` [Dihydrocodeinone thiosemicarbazone], for which the 50% effective dose (ED50) in data set [1] was 1.7 mg/kg; in data set [2] (sc.), 0.6 mg/kg.

In the case of `CN1CC[C@]23c4c5ccc(O)c4O[C@H]2C(=NNc2ccc([N+](=O)[O-])cc2[N+](=O)[O-])CC[C@H]3[C@H]1C5` [Dihydromorphinone dinitrophenylhydrazone, Dihydromorphinone-2,4-dinitrophenyl hydrazone], the ED50 stood at 0.27 mg/kg in data set [1] and 0.18 mg/kg in data set [2] (sc.).

Consider `CN1CC[C@]23c4c5ccc(O)c4O[C@H]2C(=NNC(N)=O)CC[C@H]3[C@H]1C5` [Dihydromorphinone semicarbazone], for which the ED50 worked out at 0.085 mg/kg in data set [1] and 0.13 mg/kg in data set [2] (sc.).

With `CN1CC[C@]23c4c5ccc(O)c4O[C@H]2[C@@H](O)C=C[C@H]3[C@H]1C5` [Morphine, reference compound], the “Hot plate test ED50” value in data set [1] is listed as 3.6 mg/kg. Moreover, the ED50 in data set [2] (sc) was found to be 5 mg/kg.

Consider `COc1ccc2c3c1O[C@H]1C(=NNc4ccccc4)CC[C@@]4(O)[C@@H](C2)N(C)CC[C@]314` [Oxycodone phenylhydrazone, 14-OH-dihydrocodeinone phenylhydrazone], for which the ED50 in data set [1] worked out at 0.8 mg/kg; in data set [2] (sc.), 1.2 mg/kg.

For the compound `COc1ccc2c3c1O[C@H]1C(=NNC(N)=O)CC[C@@]4(O)[C@@H](C2)N(C)CC[C@]314` [Oxycodone semicarbazone, 14-OH-dihydrocodeinonesemicarbazone], the ED50 in data set [1] was determined as 0.58 mg/kg; in data set [2] (sc.), 0.45 mg/kg.

On to `CN1CC[C@]23c4c5ccc(O)c4O[C@H]2C(=NNc2ccc([N+](=O)[O-])cc2[N+](=O)[O-])CC[C@@]3(O)[C@H]1C5` [Oxymorphone dinitrophenylhydrazone, 14-OH-dihydromorphinone-2,4-dinitrophenyl hydrazone], for which the ED50 was determined as 0.37 mg/kg in data set [1] and 0.27 mg/kg in data set [2] (sc.).

For the compound `CN1CC[C@]23c4c5ccc(O)c4O[C@H]2C(=NNC(N)=O)CC[C@@]3(O)[C@H]1C5` [Oxymorphone semicarbazone, 14-OH-dihydromorphinone semicarbazone], the median effective dose (ED50) in data set [1] and in data set [2] (sc.) was 0.9 mg/kg throughout.
